Biological target: T1, human mGlu 5a receptor (Homo sapiens, UniProt P41594)
T1 construct: expressed in transfected cells; host or cells: EBNA cells (transient transfection); cell membrane homogenates
Experiment: [3H]MPEP competition binding on membranes of EBNA cells transiently transfected with human mGlu 5a receptor
Settings: displacement of [3H]MPEP (2 nM), 1 h at 4° C.
Method: The pharmacological activity of the compounds was tested using the following method: For binding experiments, cDNA encoding human mGlu 5a receptor was transiently transfected into EBNA cells using a procedure described by Schlaeger and Christensen [Cytotechnology 15:1-13 (1998)]. Cell membrane homogenates were stored at −80° C. until the day of assay where upon they were thawed and resuspended and polytronized in 15 mM Tris-HCl, 120 mM NaCl, 100 mM KCl, 25 mM CaCl2, 25 mM MgCl2 binding buffer at pH 7.4 to a final assay concentration of 20 μg protein/well.
Saturation isotherms were determined by addition of twelve [^3H]MPEP concentrations (0.04-100 nM) to these membranes (in a total volume of 200 μl) for 1 h at 4° C. Competition experiments were performed with a fixed concentration of [^3H]MPEP (2 nM), and IC50 values of test compounds evaluated using […] (0.3-10,000 nM). Incubations were performed for 1 h at 4° C.
At the end of the incubation, membranes were filtered onto unifilter (96-well white microplate with bonded GF/C filter preincubated 1 h in 0.1% PEI in wash buffer, Packard BioScience, Meriden, Conn.) with a Filtermate 96 harvester (Packard BioScience) and washed 3 times with cold 50 mM Tris-HCl, pH 7.4 buffer. Nonspecific binding was measured in the presence of 10 μM MPEP. The radioactivity on the filter was counted (3 min) on a Packard Top-count microplate scintillation counter with quenching correction after addition of 45 μl of microscint 40 (Canberra Packard S.A., Zürich, Switzerland) and shaking for 20 min.
The inhibition (antagonists) curves were fitted with a four parameter logistic equation giving IC50, and Hill coefficient using iterative non linear curve fitting software (Xcel fit).
For binding experiments the Ki values of the compounds tested are given. The Ki value is defined by the following formula: Ki=IC50/[1+L/Kd] in which the IC50 values are these concentrations of the compounds tested which cause 50% inhibition of the competing radioligand ([^3H]MPEP). L is the concentration of radioligand used in the binding experiment and the Kd value of the radioligand is empirically determined for each batch of membranes prepared.

T1 sequence (P41594 21-1180 isoform P41594-2 limits assumed): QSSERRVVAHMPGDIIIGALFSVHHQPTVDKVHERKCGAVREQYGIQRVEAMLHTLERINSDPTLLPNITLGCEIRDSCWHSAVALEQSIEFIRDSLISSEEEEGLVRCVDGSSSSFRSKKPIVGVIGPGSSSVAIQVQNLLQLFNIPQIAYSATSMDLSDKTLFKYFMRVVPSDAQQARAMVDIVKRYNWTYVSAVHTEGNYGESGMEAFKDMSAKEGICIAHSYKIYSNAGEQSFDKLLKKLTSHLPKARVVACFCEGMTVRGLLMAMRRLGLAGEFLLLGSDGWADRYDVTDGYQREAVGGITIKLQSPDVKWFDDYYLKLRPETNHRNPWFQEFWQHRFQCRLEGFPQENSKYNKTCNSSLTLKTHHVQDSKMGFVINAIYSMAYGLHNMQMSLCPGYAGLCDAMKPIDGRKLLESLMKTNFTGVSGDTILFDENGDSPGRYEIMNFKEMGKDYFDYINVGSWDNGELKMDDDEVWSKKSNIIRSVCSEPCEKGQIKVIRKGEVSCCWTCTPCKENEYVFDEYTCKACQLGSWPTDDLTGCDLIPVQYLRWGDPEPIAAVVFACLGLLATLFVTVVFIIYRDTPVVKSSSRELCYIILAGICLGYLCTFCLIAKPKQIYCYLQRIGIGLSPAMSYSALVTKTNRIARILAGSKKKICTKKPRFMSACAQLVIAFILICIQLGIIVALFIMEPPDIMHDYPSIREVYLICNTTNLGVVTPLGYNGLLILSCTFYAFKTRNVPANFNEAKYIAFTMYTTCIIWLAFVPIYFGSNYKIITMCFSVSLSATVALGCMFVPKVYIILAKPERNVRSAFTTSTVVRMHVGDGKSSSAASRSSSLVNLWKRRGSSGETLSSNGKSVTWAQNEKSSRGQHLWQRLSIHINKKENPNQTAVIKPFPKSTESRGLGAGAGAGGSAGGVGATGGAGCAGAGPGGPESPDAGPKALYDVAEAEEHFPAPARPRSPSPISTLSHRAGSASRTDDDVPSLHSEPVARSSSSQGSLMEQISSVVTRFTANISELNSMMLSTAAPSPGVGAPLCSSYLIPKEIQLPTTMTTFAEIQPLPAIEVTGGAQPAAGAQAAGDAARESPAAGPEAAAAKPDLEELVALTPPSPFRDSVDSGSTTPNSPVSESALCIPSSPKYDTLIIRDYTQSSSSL

SMILES | Ki [nM]
O=C(Nc1cccc(Cl)c1)c1nccnc1Nc1cccnc1 [Example 1, 3-(Pyridin-3-ylamino)-pyrazine-2-carboxylic acid (3-chloro-phenyl)-amide] | 54
O=C(Nc1cccc(Cl)c1)c1nccnc1Nc1ccccc1 [Example 2, 3-Phenylamino-pyrazine-2-carboxylic acid (3-chloro-phenyl)-amide] | 95

The next lines start with the values.

Ki [nM] | SMILES
71 | Cn1ccc(NC(=O)c2nccnc2Nc2cncc(F)c2)n1 [Example 3, 3-(5-Fluoro-pyridin-3-ylamino)-pyrazine-2-carboxylic acid (1-methyl-1H-pyrazol-3-yl)-amide]
761 | Cc1cc(NC(=O)c2nccnc2Nc2ccccc2)ccn1 [Example 4, 3-Phenylamino-pyrazine-2-carboxylic acid (2-methyl-pyridin-4-yl)-amide]
1630 | Cc1cc(NC(=O)c2nc(C)cnc2Nc2cncc(Cl)c2)ccn1 [Example 5, 3-(5-Chloro-pyridin-3-ylamino)-6-methyl-pyrazine-2-carboxylic acid (2-methyl-pyridin-4-yl)-amide]
